The values below are quoted from earlier work in article PMC10138554, “Insights into the Microbicidal, Antibiofilm, Antioxidant and Toxicity Profile of New O-Aryl-Carbamoyl-Oxymino-Fluorene Derivatives” (International Journal of Molecular Sciences, 2023).

The structures appear in SMILES notation. In brackets after ≈: the same amount, converted by molar mass.

This series has as its system Artemia franciscana Kellog nauplii. Particulars: comparison value for brine shrimp toxicity; cited from earlier work.

Take `O=P1(N(CCCl)CCCl)NCCCO1` (stereo not shown) [cyclophosphamide]: the “IC50 (toxicity)” value was 16.3 µg/mL (≈ 62.4 µM).
